Measured values: patent publication US12514859B2, “Pyrazole pyrimidine derivative and uses thereof” (Yissum Research Development Company of the Hebrew …, priority 2015, dated 2026)

Assays:
[1] = tested on: bone marrow cells isolated from CML blast crisis mice; experiment: Ex vivo inhibitor effects on bone marrow cells from CML blast crisis mice; format: cell-based, mouse; conditions: 8 hours
Experimental: Ex vivo inhibitor effects (FIGS. 2A and 13A-E). Freshly isolated BM from AML (13A-E) or CML blast crisis (2A) carrying mice were grown in RPMI supplemented with 15% FCS, L-Glutamine, Pen/Strep, Hepes, Sodium Pyruvate and non-essential amino acids (Biological Industries, Israel). CKI inhibitors (A14, A51, A75 or A86) were dissolved in DMSO and added to the tissue culture medium at the indicated concentrations; control cultures were treated with DMSO only. Several hours following treatment (as indicated in each experiment), cells were harvested and counted manually using a camera and standard inverted light microscope. Dead cells were excluded using Trypan Blue (Sigma). AnnexinV-PE (MBL), 7AAD (Tonbo) and PD-L1 (BioLegend) staining was evaluated by FACS according to manufacturer's recommendation.
FACS analysis. All assays were performed on BD's equipment: FACS caliber, FACS ARIA sorter or LSR II machines. For immunostaining, cells were suspended in a 1% BSA/PBS buffer with […]. Cells were then analyzed by using Annexin V PE Apootosis Detection Kit (eBioscience), 7-AAD (TONBO biosciences) and PE anti-mouse CD274 (B7-H1, PD-L1) antibody (clone 10F.9G2, BioLegend); Assays were performed according to the manufacturer's instruction. Monoclonal antibodies specific for CD16 and CD32 (Miltenyi Biotec) were used for blockade of Fc receptors before staining.

IRAK1 = target: T1, IRAK1 (Homo sapiens, UniProt P51617); experiment: IRAK1 inhibition in RKO cells treated with TNFα (Western blot); format: cell-based; conditions: RKO cells, Western blot; A51 1 μM, A14 2 μM, 16 hours, TNFα 100 units/ml
T1 construct: endogenous in cells; host or cells: RKO cells, stimulated with TNFα
T1 sequence (P51617 whole entry): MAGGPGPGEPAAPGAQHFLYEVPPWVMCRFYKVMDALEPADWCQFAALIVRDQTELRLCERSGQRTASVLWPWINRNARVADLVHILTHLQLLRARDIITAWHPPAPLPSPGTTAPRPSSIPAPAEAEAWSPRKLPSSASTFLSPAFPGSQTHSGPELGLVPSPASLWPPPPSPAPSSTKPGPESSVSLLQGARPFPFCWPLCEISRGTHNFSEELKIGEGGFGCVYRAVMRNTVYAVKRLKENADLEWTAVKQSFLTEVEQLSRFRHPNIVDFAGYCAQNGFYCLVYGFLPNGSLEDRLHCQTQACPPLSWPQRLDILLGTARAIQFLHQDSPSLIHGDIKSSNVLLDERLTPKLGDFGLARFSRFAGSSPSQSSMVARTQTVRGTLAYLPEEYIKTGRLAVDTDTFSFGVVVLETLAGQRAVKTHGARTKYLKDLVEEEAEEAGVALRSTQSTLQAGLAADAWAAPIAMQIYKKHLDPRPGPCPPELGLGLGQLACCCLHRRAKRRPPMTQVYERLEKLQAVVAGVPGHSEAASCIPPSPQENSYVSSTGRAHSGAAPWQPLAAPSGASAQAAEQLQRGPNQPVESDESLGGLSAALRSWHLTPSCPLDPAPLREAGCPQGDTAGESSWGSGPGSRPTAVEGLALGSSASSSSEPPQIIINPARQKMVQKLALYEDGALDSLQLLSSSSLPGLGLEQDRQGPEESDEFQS
Experimental: (§1) Cells were harvested and analyzed by Western blot. Blots were incubated with the following antibodies: Phospho-IRAK1 (Thr209), (A1074, AssayBiothechnology; 1/1,000), Phospho-IKKα/β (Ser176/180) (16A6, Cell Signaling; 1/1,000), IKKα (2682, cell signaling; 1/1,1000), IKK β (2370, cell signaling; 1/1,1000), Phospho-c-Jun (Ser 63) (9261, cell signaling; 1/1,1000), p53 (DO-1&1801 hybridoma mix; dilution of 1:20 of supernatants from each), CKIα (C-19; 1/1,000; Santa Cruz Biotechnology) and phospho-histoneH2AX (S139; 1/1,000; Millipore). Secondary antibodies were HRP-linked goat anti-mouse, goat anti-rabbit and rabbit anti-goat antibodies (all 1/10,000; Jackson). Inhibition of Phospho-IRAK1, Phospho-IKKα/β and Phospho-c-Jun indicate IRAK1 inhibition. p53 stabilization and phosphorylation of H2AX (γH2AX), a marker of DNA damage, indicative of CKIα kinase inhibition. CKIα protein levels serves as a loading control.
as §1, with “IRAK1 Inhibition with compounds of the invention. RKO cells were incubated for 16 hours at 37° C. with the indicated concentrations of compounds of the invention A51 (1 μM) and A14 (2 μM) (FIG. 10). At the indicated time points, RKO were treated with TNFα (100 units/ml). Cells” for “Cells”, “IKKβ” for “IKK β”, “Blots were developed using ECL (GE Healthcare). […] Also shown is” for “Inhibition of Phospho-IRAK1, Phospho-IKKα/β and Phospho-c-Jun indicate IRAK1 inhibition.”

AML mice (MLL-AF9) = experiment: MLL-AF9 acute myeloid leukemia (AML) mouse model; format: in vivo; conditions: oral gavage 20 mg/kg for 3 days then 10 mg/kg/day for 6 days
Experimental: Generation of a mouse model of acute myeloid leukemia (AML) (FIG. 6) and treatment with the CKIα inhibitor A14 (FIGS. 7, 8 and 9) or A51 (FIGS. 11 and 12). To generate the MLL-AF9 Acute myeloid leukemia (AML) model, bone marrow (BM) cells from 10 week old wild type mouse were extracted and enriched for cKit expressing cells (EasySep #18757) and incubated overnight in RPMI supplemented with 15% FCS L-Glutamine, Pen/Strep (Biological Industries, Israel) and stem cell factor (SCF), IL-3, IL-6 and TPO (Peprotech). The culture was infected with MSCV-MLL-AF9-IRES-GFP retrovirus construct containing supernatant medium for 4 hours, then growth medium was added and infected cells were incubated at 37° C. for additional 24 h. The culture was then injected I.V. into sub lethally irradiated (500 rad) mice. Upon detectable steady increase of GFP expressing cells in the mice peripheral blood (checked by FACS analysis) and rise in leukocyte numbers and immature cells (detected by Wright-Giemsa stained blood films), mice were sacrificed and their BM was transferred (1st BMT) to sublethally irradiated WT hosts. Upon emergence of AML disease mice were sacrificed and 50,000 BM cells were transplanted (2nd BMT) into WT host mice. GFP expressing cells were monitored in the peripheral blood and upon detecting >10% GFP^+ in PB (day 11 after BMT) mice were treated with A14 inhibitor (FIG. 7A). A14 was administered by oral gavage once a day at a dose of 20 mg/kg for 3 days followed by 10 mg/kg/day for 6 more days. The inhibitor was dissolved in 1% methyl cellulose with 0.1% Tween 80 and 0.2% Poly-ethylene glycol (Vehicle). Control mice were treated with the vehicle only. Mice were monitored daily for cachexia, lethargy, and ruff coats, and moribund mice were sacrificed. For a single dose experiment (FIG. 11A) A51 was administered by oral gavage at a single dose of 20 mg/kg and mice were sacrificed 16 hours following treatment.
Complete blood counts. Peripheral venous blood was obtained from the mouse facial vein using standard techniques and analyzed using the auto hematology analyzer BC-2800 (Mindray) per manufacturer's instructions.
Single-dose treatment effect of a CKI inhibitor in AML mice and PD-L1 expression. AML mice were prepared by inoculating MLL-AF9 oncogene-transduced bone marrow cells to C57/BL6 mice. MLL-AF9 fusion represents one of a poor prognosis human AML induced by chromosomal translocation. 30 days after leukemia inoculation, the recipient mice have high white blood cells (WBC) counts (×10 higher than a normal mouse), and harbor >95% leukemia blasts in the bone marrow and 50% of the peripheral WBC in these mice are AML blasts. These mice have splenomegaly and their bones are pale and fragile due to the acute leukemia (FIG. 12).

Cn1ncc(-c2ccnc(N[C@H]3CC[C@H](N)CC3)n2)c1CC1CC1 [Compound A14, (1R, 4R)—N^1-(4-(5-(cyclopropylmethyl)-1-methyl-1H-pyrazol-4-yl)pyrimidin-2-yl)cyclohexane-1,4-diamine]
apoptosis of bone marrow cells (Annexin5+/7AAD−) (in words) ([1]; dose dependent): induces apoptosis | total death (7AAD+) cells (in words) ([1]; dose dependent): increased percentage of total death (7AAD+) cells | leukemic cell number (in words) ([1]; dose response): dramatic reduction of the leukemic cell number | IRAK1 activation and activation of the IRAK1 target IKK (in words) (IRAK1): inhibition of IRAK1 activation | progression of AML, GFP+ leukocytes in peripheral blood (in words) (AML mice (MLL-AF9)): inhibitory effect
